Counter-ions that a name gives are not always drawn. Like-named read-outs stand apart in the source and are kept apart here.
System: BALB/3T3 clone A31 cells
Experiment: cells
Assay type: cell-based
Conditions: for IC50: Mus musculus, light or radiation study, BALB/3T3 clone A31 cells, neutral red
Procedure: To evaluate the phototoxicity of (PEG)-BHD1028, the potential phototoxicity of (PEG)-BHD1028 was measured in the BALB/3T3 clone A31 cells after UV exposure. The test substance and the positive control group (chlorpromazine hydrochloride; CPZ) were dissolved in a Hank's Balanced Salt Solution (HBSS) and then diluted with a Hank's Balanced Salt Solution (HBSS). The cells were trypsinized and counted. Thereafter, 1×10^4 cells per well were seeded in a 96-well plate and cultured for approximately 24 hours before treating the test samples. One hour after the sample treatment, the plate was irradiated with a UV irradiation system (UVA, 365 nm). After UV irradiation, the plate was incubated for 24 hours. The cell viability of the cultured cells was confirmed by measuring the absorbance at 540 nm using the neutral red staining method.

MPE (mean photo effect) (mouse, 24 h): 0.489 | PIF (photo irradiation factor) (mouse, 24 h): 29.668
Compound: CN(C)CCCN1c2ccccc2Sc2ccc(Cl)cc21 [CPZ, chlorpromazine hydrochloride, reference compound]
phototoxicity classification by PIF and MPE: positive results | IC50 (UVA 365 nm irradiation, read-out: IC50 UV (+Irr)): 1.26 µg/mL | IC50 (without UV irradiation, read-out: IC50 UV (−Irr)): 37.5 µg/mL

Reference: patent US20240408167A1, “COMPOSITION FOR TREATING OCULAR DISEASES CONTAINING PEPTIDE” (Encuragen Inc., priority 2023, published 2024)
